Results from the supplement of paper PMC4121296.
± gives the standard deviation of the averaged measurements.

Legend:
Details in all cases: exposure: 5-72 hpf
[1] = test system: Danio rerio embryo (fli1:egfp); assay: arterial (dorsal aorta) circulation score at 72 hpf (normalized DA-Max (arbitrary units)); higher = more circulation
Description: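 fli1:egfp zebrafish embryos exposed 5-72 hpf to chemical (0.05-50 µM, 0.1% DMSO); arterial circulation at 72 hpf quantified from stream acquisitions of the dorsal aorta by FFT-based analysis (DA-Max, normalized dorsal aorta signal); only concentrations passing survival/body-length criteria analyzed.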

[2] = test system: Danio rerio embryo (fli1:egfp); assay: intersegmental vessel area normalized to body length at 72 hpf (ISV area / body length (normalized units)); higher = more vessel area
Description: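 fli1:egfp zebrafish embryos exposed 5-72 hpf to chemical (0.05-50 µM, 0.1% DMSO); intersegmental vessel (ISV) eGFP area quantified by MetaXpress journal at 72 hpf and normalized to body length.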

[3] = test system: Danio rerio embryo (fli1:egfp); assay: pericardial area at 72 hpf (image area units (not stated)); higher = larger pericardial area (edema)
Description: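 fli1:egfp zebrafish embryos exposed 5-72 hpf to chemical (0.05-50 µM, 0.1% DMSO); pericardial area at 72 hpf measured by semi-automated MetaXpress journal (increase indicates edema).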

[4] = test system: Danio rerio embryo (fli1:egfp); assay: heart rate at 72 hpf (beats per minute); higher = faster heart rate
Description: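 fli1:egfp zebrafish embryos exposed 5-72 hpf to chemical (0.05-50 µM, 0.1% DMSO) in 384-well plates; heart rate at 72 hpf quantified from stream acquisitions by semi-automated MetaXpress journal (peak counting); only embryos in concentrations passing survival/body-length criteria analyzed.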

[5] = test system: Danio rerio embryo (fli1:egfp); assay: body length at 72 hpf (µm); higher = longer body (less growth inhibition)
Description: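 Transgenic fli1:egfp zebrafish embryos (one per well, 384-well plate) exposed statically from 5 to 72 hpf at 28 °C to chemical (0.05-50 µM, 0.1% DMSO); at 72 hpf anesthetized and imaged on ImageXpress; body length of live, hatched, correctly oriented embryos measured by automated MetaXpress journal. Dead/unhatched/misoriented embryos have no value.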

In the case of C=C(C)[C@H]1Cc2c(ccc3c2O[C@@H]2COc4cc(OC)c(OC)cc4[C@@H]2C3=O)O1 [Rotenone], the arterial ([1]; 0.05 µM) is reported as 8.64 ± 4.7, the “intersegmental vessel area normalized” value ([2]; 0.05 µM) is reported as 85.6 ± 18 and the “pericardial area at 72 hpf” value ([3]; 0.05 µM) is reported as 18800 ± 9900. The “heart rate at 72 hpf” value ([4]; 0.05 µM) was 141 ± 28 and the “body length at 72 hpf” value ([5]; 0.05 µM) was 3020 ± 150.
Cc1nn(-c2cc(NS(C)(=O)=O)c(Cl)cc2Cl)c(=O)n1C(F)F [Sulfentrazone] showed an arterial ([1]; 0.05 µM) of 11.4 ± 5, an arterial ([1]; 0.098 µM) of 11.7 ± 3.6 and an arterial ([1]; 0.195 µM) of 12.6 ± 4.1. The arterial ([1]; 0.39 µM) was 9.83 ± 4.8, the arterial ([1]; 0.78 µM) was 11.3 ± 4.1 and the arterial ([1]; 1.56 µM) was 8.91 ± 3.8. It also gave an arterial ([1]; 3.125 µM) of 8.71 ± 3.6, an arterial ([1]; 6.25 µM) of 8.86 ± 12 and an arterial ([1]; 12.5 µM) of 7.1 ± 2.4. For the same compound, the arterial ([1]; 25 µM) was 11.1 ± 17, the arterial ([1]; 50 µM) was 5.34 ± 1.9 and the “intersegmental vessel area normalized” value ([2]; 0.05 µM) was 77.2 ± 24. For the same compound, the “intersegmental vessel area normalized” value ([2]; 0.098 µM) was 76.8 ± 23, the “intersegmental vessel area normalized” value ([2]; 0.195 µM) was 71.2 ± 22 and the “intersegmental vessel area normalized” value ([2]; 0.39 µM) was 72.4 ± 22. The “intersegmental vessel area normalized” value ([2]; 0.78 µM) was 78.9 ± 21, the “intersegmental vessel area normalized” value ([2]; 1.56 µM) was 72.4 ± 22 and the “intersegmental vessel area normalized” value ([2]; 3.125 µM) was 71.4 ± 20. The “intersegmental vessel area normalized” value ([2]; 6.25 µM) was 69.7 ± 22, the “intersegmental vessel area normalized” value ([2]; 12.5 µM) was 74.8 ± 20 and the “intersegmental vessel area normalized” value ([2]; 25 µM) was 71.2 ± 17. For the same compound, the “intersegmental vessel area normalized” value ([2]; 50 µM) was 71.2 ± 24, the “pericardial area at 72 hpf” value ([3]; 0.05 µM) was 17900 ± 6200 and the “pericardial area at 72 hpf” value ([3]; 0.098 µM) was 16100 ± 3600. For the same compound, the “pericardial area at 72 hpf” value ([3]; 0.195 µM) was 16300 ± 3600, the “pericardial area at 72 hpf” value ([3]; 0.39 µM) was 15600 ± 3200 and the “pericardial area at 72 hpf” value ([3]; 0.78 µM) was 16100 ± 4200. For the same compound, the “pericardial area at 72 hpf” value ([3]; 1.56 µM) was 18600 ± 4900, the “pericardial area at 72 hpf” value ([3]; 3.125 µM) was 17200 ± 4300 and the “pericardial area at 72 hpf” value ([3]; 6.25 µM) was 20400 ± 5400. For the same compound, the “pericardial area at 72 hpf” value ([3]; 12.5 µM) was 18700 ± 4200, the “pericardial area at 72 hpf” value ([3]; 25 µM) was 21700 ± 5200 and the “pericardial area at 72 hpf” value ([3]; 50 µM) was 21200 ± 5300. The “heart rate at 72 hpf” value ([4]; 0.05 µM) was 156 ± 15, the “heart rate at 72 hpf” value ([4]; 0.098 µM) was 158 ± 12 and the “heart rate at 72 hpf” value ([4]; 0.195 µM) was 158 ± 14. For the same compound, the “heart rate at 72 hpf” value ([4]; 0.39 µM) was 157 ± 12, the “heart rate at 72 hpf” value ([4]; 0.78 µM) was 161 ± 11 and the “heart rate at 72 hpf” value ([4]; 1.56 µM) was 163 ± 12. The “heart rate at 72 hpf” value ([4]; 3.125 µM) was 162 ± 13, the “heart rate at 72 hpf” value ([4]; 6.25 µM) was 167 ± 24 and the “heart rate at 72 hpf” value ([4]; 12.5 µM) was 170 ± 21. The “heart rate at 72 hpf” value ([4]; 25 µM) was 169 ± 16, the “heart rate at 72 hpf” value ([4]; 50 µM) was 173 ± 30 and the “body length at 72 hpf” value ([5]; 0.05 µM) was 3000 ± 140. The “body length at 72 hpf” value ([5]; 0.098 µM) was 2990 ± 190, the “body length at 72 hpf” value ([5]; 0.195 µM) was 2990 ± 150 and the “body length at 72 hpf” value ([5]; 0.39 µM) was 2970 ± 120. The “body length at 72 hpf” value ([5]; 0.78 µM) was 2920 ± 230, the “body length at 72 hpf” value ([5]; 1.56 µM) was 2930 ± 140 and the “body length at 72 hpf” value ([5]; 3.125 µM) was 2970 ± 150. For the same compound, the “body length at 72 hpf” value ([5]; 6.25 µM) was 3030 ± 100, the “body length at 72 hpf” value ([5]; 12.5 µM) was 3020 ± 93 and the “body length at 72 hpf” value ([5]; 25 µM) was 2970 ± 110. The “body length at 72 hpf” value ([5]; 50 µM) was 2950 ± 180.
For CCc1nn(C)c(C(=O)NCc2ccc(C(C)(C)C)cc2)c1Cl [Tebufenpyrad], the arterial ([1]; 0.05 µM) was 9.08 ± 3.3, the arterial ([1]; 0.098 µM) was 10.5 ± 4 and the arterial ([1]; 0.195 µM) was 10.6 ± 4.2. The arterial ([1]; 0.39 µM) was 11.6 ± 4.6, the arterial ([1]; 0.78 µM) was 14.2 ± 6.5 and the “intersegmental vessel area normalized” value ([2]; 0.05 µM) was 75.7 ± 23. The “intersegmental vessel area normalized” value ([2]; 0.098 µM) was 75.9 ± 21, the “intersegmental vessel area normalized” value ([2]; 0.195 µM) was 78.8 ± 16 and the “intersegmental vessel area normalized” value ([2]; 0.39 µM) was 76.5 ± 20. For the same compound, the “intersegmental vessel area normalized” value ([2]; 0.78 µM) was 77 ± 20, the “pericardial area at 72 hpf” value ([3]; 0.05 µM) was 13400 ± 2600 and the “pericardial area at 72 hpf” value ([3]; 0.098 µM) was 13600 ± 3200. For the same compound, the “pericardial area at 72 hpf” value ([3]; 0.195 µM) was 13000 ± 3000, the “pericardial area at 72 hpf” value ([3]; 0.39 µM) was 14800 ± 3400 and the “pericardial area at 72 hpf” value ([3]; 0.78 µM) was 16300 ± 6100. The “heart rate at 72 hpf” value ([4]; 0.05 µM) was 155 ± 12, the “heart rate at 72 hpf” value ([4]; 0.098 µM) was 166 ± 32 and the “heart rate at 72 hpf” value ([4]; 0.195 µM) was 160 ± 22. For the same compound, the “heart rate at 72 hpf” value ([4]; 0.39 µM) was 166 ± 27, the “heart rate at 72 hpf” value ([4]; 0.78 µM) was 174 ± 38 and the “body length at 72 hpf” value ([5]; 0.05 µM) was 2980 ± 67. The “body length at 72 hpf” value ([5]; 0.098 µM) was 2960 ± 100, the “body length at 72 hpf” value ([5]; 0.195 µM) was 2960 ± 91 and the “body length at 72 hpf” value ([5]; 0.39 µM) was 2990 ± 92. The “body length at 72 hpf” value ([5]; 0.78 µM) was 2950 ± 89.
